# Values quoted from earlier work in patent publication US20130130306A1, “ZN (II) BASED COLORIMETRIC SENSOR AND PROCESS FOR THE PREPARATION THEREOF” (COUNCIL OF SCIENTIFIC & INDUSTRIAL RESEARCH, priority 2010, published 2013).
# Test system: living microbes (eukaryotes and prokaryotes)
# Details: drug carrier, general knowledge; cited from earlier work
smiles,measurement,value
"OC[C@H]1O[C@@H]2O[C@H]3[C@H](O)[C@@H](O)[C@@H](O[C@H]4[C@H](O)[C@@H](O)[C@@H](O[C@H]5[C@H](O)[C@@H](O)[C@@H](O[C@H]6[C@H](O)[C@@H](O)[C@@H](O[C@H]7[C@H](O)[C@@H](O)[C@@H](O[C@H]1[C@H](O)[C@H]2O)O[C@@H]7CO)O[C@@H]6CO)O[C@@H]5CO)O[C@@H]4CO)O[C@@H]3CO [α-CD, α-cyclodextrin]",toxicity to the living cell (known),completely non-toxic
